Measurements from patent publication US11857601B2, “Pharmaceutical composition for cancer treatment comprising fusion protein including IL-2 protein and CD80 protein and anticancer drug” (GI INNOVATION, INC., priority 2020, dated 2024).

Columns and labels:
[1] = test system: effector CD8+ T cells, NK cells, Treg cells; test: Effect on mouse immune cells in spleen; assay type: in vivo, C57BL/6 mice; settings: 3rd to 14th days after i.v. administration (3, 6 or 12 mg/kg), vs PBS
Procedure: On days 1, 3, 5, 7, and 14 after the injection, the spleen tissues were removed from the mice of each group. Thereafter, for the spleen tissue, the numbers of effector CD8+ T cells, NK cells, and Treg cells were calculated with FACS analysis using respective antibodies, and proportions of effector CD8+ T cells and NK cells with respect to Treg cells were respectively calculated. The information on the antibodies used in each cell analysis is as follows:
Effector CD8+ T cell: PB anti-mouse CD3ε antibody (Biolegend, #155612; KT3.1.1), FITC anti-mouse CD8α antibody (BD, #553031, 53-6.7), PE/Cy7 anti-mouse CD44 antibody (Biolegend, #103030; IM7), APC anti-mouse CD122 antibody (Biolegend, #123214; TM-β1)
NK cell: PB anti-mouse CD3ε antibody (Biolegend, #155612; KT3.1.1), PE anti-mouse NK-1.1 (Biolegend, #108708; PK136)
Treg cell: FITC anti-mouse CD3 antibody (Biolegend, #100204; 17A2), PB anti-mouse CD4 antibody (Biolegend, #100531; RM4-5), PE anti-mouse CD25 antibody (Biolegend, #102008; PC61), APC anti-mouse Foxp3 antibody (Invitrogen, #FJK-16s, 17-5773-82).

LL/2 cell line = test: mGI-101 and Axitinib in LL/2 allotransplanted tumor model; assay type: in vivo, C57BL/6 mice; settings: mGI-101 3 mg/kg IP, Axitinib 30 mg/kg PO
Procedure: Mouse-derived colorectal cancer cells, CT26 (Mus musculus, Colon adenocarcinoma), and mouse-derived lung cancer cells, LL/2 (Mus musculus, Lung adenocarcinoma), were purchased from ATCC (USA) and used for the test. The cells to be used for the test were thawed, mixed with RPMI1640 (A1049101, Thermofisher scientific) medium containing 10% FBS (fetal bovine serum, Gibco, 10082-147), and then placed in a cell culture flask, and cultured in a 37° C., 5% CO2 incubator. The cells were washed with PBS, and then the cells were isolated using Trypsin-EDTA (15090, Gibco), and centrifugation (125×g, 5 minutes) was performed to discard the supernatant, and then the cells were suspended in a new medium to obtain the cell suspension. The viability of the cells was identified, and then a cell line was prepared by diluting in a medium to a concentration of 5.0×10^6 cells/mL.
6-week-old male BALB/cAnHsd mice or C57BL/6NHsd mice were purchased and used for the test. After the end of the acclimation period of 7 days, the cells were transplanted into healthy animals. The cell suspension (5×10^6 cells/mL) was dispensed, and filled into a disposable syringe, and transplantation of the suspension was performed by subcutaneous administration at 0.1 mL/head in the right dorsal region of the animals. General symptoms were observed once a day during the engraftment and growth period after cell line transplantation.
After the inoculation of the cell line was performed, when the tumor size at the site to which the cell line was transplanted reached about 50 mm^3, the tumor size of each group was distributed as uniformly as possible according to the ranked tumor size.
The test substance was administered orally or intraperitoneally, and administered for 3 weeks depending on the composition of the test group. In the case of oral administration, the animals were fixed with the cervical spine skin fixation method, and administered directly into the stomach using a sonde for oral administration. In the case of intraperitoneal administration, the animals were fixed with the cervical spine skin fixation method, and administered intraperitoneally using a syringe equipped with a 26 gauge needle. The administration rate was not to exceed 200 μl/min.
Syngeneic model was prepared by subcutaneously transplanting the LL/2 cell line into C57BL/6 mice, and then the test substance was administered to evaluate the anticancer effect.

[2] = test system: CD8+ T cells and CD4+/FoxP3+ Treg cells; test: Proliferation of CD8+ T cells and Treg cells in PBMCs (Exp. Ex. 10); assay type: cell-based, human
Procedure: Human PBMCs were purchased from Allcells (Lot #3014928, USA). […] CellTrace CFSE dye was used, which was reacted with the human PBMCs under a light-blocking condition at […] for 20 minutes. The cells were labeled with CFSE by being reacted with 1 μM CellTrace CFSE dye at 37° C. for 20 minutes. CFSE not bound to the cells was removed by being reacted for 5 minutes with a culture medium having a 5-fold volume of the staining reaction solution and then by being centrifuged at 1,300 rpm for 5 minutes. The CFSE-labeled PBMCs were resuspended in the culture medium (RPMI1640 medium containing 10% fetal bovine serum, 10 mM HEPES, 100 U/ml penicillin/streptomycin, 1 mM sodium pyruvate, 55 μM 2-mercaptoethanol, 1 mM non-essential amino acid, and 2 mM L-glutamine), and then added to a 96-well microplate at 1×10^5 cells per well.
The incubated cells were examined for their degree of proliferation by measuring, with FACS analysis using anti-human CD4-PE antibody (BioLegend, USA), anti-human CD8-PE/Cy7 antibody (BioLegend, USA), and anti-human FoxP3-APC antibody (BioLegend, USA), a proportion of CD8+ T cells that had not been labeled with CFSE.

HCT116 cells = test: Cancer cell killing, GI-101 and Cetuximab, HCT116 with NK cells; assay type: cell-based, human; settings: GI-101 100 nM, Cetuximab 68.6 nM, 24 hours
From the text: HCT116 cells were purchased from the Korea cell line bank and cultured in McCoy's 5A medium (ATCC) containing 10% FBS (Gibco) and 1% antibiotic/antifungal agent (Gibco). For use in cancer cell killing test, the cells were harvested using trypsin (Gibco), and then suspended in McCoy's 5A medium, and then dead cells and debris were removed using Ficoll (GE Healthcare Life Sciences) solution. The cells suspended in McCoy's 5A medium were carefully layered on ficoll solution. The cell layer with a low specific gravity formed by centrifuging at room temperature at 350×g for 20 minutes was collected with a pipette, washed with PBS (Gibco), and then centrifuged at room temperature at 350×g for 5 minutes. The separated cell layer was made into a suspension of 2×10^5 cells/mL with FBS-free RPMI1640 medium. […]
In order to identify the effect of killing the cells, a CytoTox Green reagent ([…] ™ CytoTox Green, Satorius) that binds to the DNA of cells to be killed was prepared in 1 μl per 1 mL of RPMI1640 medium containing 5% human AB serum (Sigma). The prepared medium was used for dilution of the test substance, and the effect of killing the cells could be quantitatively identified by staining the cells to be killed when the test substance was co-cultured with cancer cell lines and PBMCs. […]

Substance: mGI101: fusion protein: mouse CD80, Ig hinge, Fc domain, linker, IL-2 variant (2M) (R38A, F42A); SEQ ID NO: 15
- numbers of CD8+ T cells and NK cells [1]: significant increase
- Tumor size (LL/2 cell line; Day 0, mean ± SD): 55.70 ± 11.48 mm^3
- Tumor growth inhibition (LL/2 cell line; Day 2, mean ± SD): −7.12 ± 34.31%
- Tumor size (LL/2 cell line; Day 2, mean ± SD): 99.18 ± 19.96 mm^3
- Tumor growth inhibition (LL/2 cell line; Day 5, mean ± SD): 1.83 ± 27.19%
- Tumor size (LL/2 cell line; Day 5, mean ± SD): 179.58 ± 39.71 mm^3
- Tumor growth inhibition (LL/2 cell line; Day 7, mean ± SD): 12.67 ± 19.15%
- Tumor size (LL/2 cell line; Day 7, mean ± SD): 409.37 ± 72.98 mm^3
- Tumor growth inhibition (LL/2 cell line; Day 9, mean ± SD): 5.78 ± 24.08%
- Tumor size (LL/2 cell line; Day 9, mean ± SD): 749.00 ± 174.47 mm^3
- Tumor growth inhibition (LL/2 cell line; Day 12, mean ± SD): 6.89 ± 28.47%
- Tumor size (LL/2 cell line; Day 12, mean ± SD): 1066.72 ± 307.18 mm^3
- Tumor growth inhibition (LL/2 cell line; Day 14, mean ± SD): 1.85 ± 36.39%
- Tumor size (LL/2 cell line; Day 14, mean ± SD): 1608.00 ± 572.50 mm^3
- Tumor growth inhibition (LL/2 cell line; Day 16, mean ± SD): 0.91 ± 39.37%
- Tumor size (LL/2 cell line; Day 16, mean ± SD): 2200.03 ± 850.12 mm^3
- Tumor growth inhibition (LL/2 cell line; Day 19, mean ± SD): −5.99 ± 39.91%
- Tumor size (LL/2 cell line; Day 19, mean ± SD): 3223.87 ± 1191.11 mm^3
- Tumor growth inhibition (LL/2 cell line; Day 21, mean ± SD): −2.78 ± 32.04%
- Tumor size (LL/2 cell line; Day 21, mean ± SD): 5431.08 ± 1673.60 mm^3

Substance: GI101: fusion protein: human CD80 fragment, Ig hinge, Fc domain, linker, IL-2 variant (2M) (R38A, F42A); SEQ ID NO: 9
- proportion of CD8+ T cells ([2]; anti-CD3ε 1 μg/ml, 7 days, compared with no stimulus, anti-CD3 antibody alone and GI101C1): significant increase
- proliferation of CD4+/FoxP3+ Treg cells ([2]; compared with no stimulus and anti-CD3 antibody alone): significant increase
- level of killing cancer cells (HCT116 cells): high level of killing cancer cells
